Data from US20170152569A1, “POLYMORPHISM IN THE BCL2 GENE DETERMINES RESPONSE TO CHEMOTHERAPY” (HIDENSEQ, priority 2014, published 2017).

Legend:
HeyA8 cells [1] = test: Sensitivity of transfected HeyA8 cells to paclitaxel (cell viability, PI/FACS); format: cell-based
Description: HeyA8 ovarian cell lines were grown at 37° C. with 5% CO2 in MEM-EAGLE medium supplement with 2 mM L-glutamine, 1.5 g/L sodium bicarbonate, 4.5 g/L glucose, 10 mM HEPES, 1.0 mM sodium pyruvate and 10% fetal bovine serum (FBS).
(§1) Propidium iodide (PI) was added to the cell suspension at a concentration of 1 μg/ml. Sorting and analyses were carried out in a Gallios flow cytometer cell sorter collecting 10,000 events. Dead cells were excluded by gating on forward and side scatter and by eliminating PI-positive events.
Cells expressing GFP-empty vector or one of three types of GFP-BCL2 variants were measured for their sensitivity to paclitaxel. Following 24 hours of transfection with one of the indicated plasmids, cells were introduced to 100 or 200 nM of paclitaxel for 24 hours incubation.
(§2) To examine the effect of rs1801018 variant on cells sensitivity to paclitaxel, GFP-empty vector control or one of three GFP-BCL2 variants (wild-type, rs1801018 variant or random) were over-expressed in cells, which then were tested with paclitaxel. Cells were incubated with increasing concentrations of paclitaxel as indicated in methods and in FIG. 3. […] To study the relationship between resistance to paclitaxel and BCL2 gene copy numbers, a Bcl2 gradient assay was performed. The assay is designed to examine cell sensitivity to paclitaxel in the presence of increasing levels of BCL2 copies. HeyA8 cells were transfected with 5 different doses of wt-BCL2-GFP. 24 hours post transfection cells were treated with paclitaxel, and 24 hours post incubation cells viability was measured by FACS.

[2] = test system: Uterine Corpus Endometrial carcinoma (UCEC); conditions: of 83 UCEC patients, paclitaxel as first line; cited from earlier work
HeyA8 cells [3] = test: Bcl2 gradient assay: cell sensitivity to paclitaxel with increasing wt-BCL2-GFP doses; format: cell-based; conditions: HeyA8 cells transfected with increased concentrations of BCL2 mRNA (5 doses of wt-BCL2-GFP); viability by FACS 24 hours after paclitaxel
Description: as §1, §2

Ovarian Cancer (OV) = conditions: paclitaxel as first line; cited from earlier work

For `CC(=O)O[C@H]1C(=O)[C@@]2(C)[C@H]([C@H](OC(=O)c3ccccc3)[C@]3(O)C[C@H](OC(=O)[C@H](O)[C@@H](NC(=O)c4ccccc4)c4ccccc4)C(C)=C1C3(C)C)[C@]1(OC(C)=O)CO[C@@H]1C[C@@H]2O` [paclitaxel, (2α,4α,5β,7β,10β,13α)-4,10-Bis(acetyloxy)-13-{[(2R,3S)-3-(benzoylamino)-2-hydroxy-3-phenylpropanoyl]oxy}-1,7-dihydroxy-9-oxo-5,20-epoxytax-11-en-2-yl benzoate], the sensitivity to paclitaxel (HeyA8 cells [1]; HeyA8 cells harboring GFP-empty vector, 100 or 200 nM paclitaxel, 24 hours) was “high sensitivity”, the “cell viability in response to paclitaxel” value (HeyA8 cells [1]; HeyA8 cells transfected with rs1801018 variant (BCL2-Mut), p-value <0.05) was “significantly improved” and the “cell death / cell viability in response to paclitaxel” value (HeyA8 cells [1]; HeyA8 cells transfected with wild-type or random BCL2, 100 or 200 nM paclitaxel, 24 hours) was “reduced cell death”. For the same compound, the “patients who require multiple lines” value [2] was 20 patients, the “patients who responded to the first line of treatment” value [2] was 63 patients and the “relative cell death in response to paclitaxel” value (HeyA8 cells [3]) was “decrease in relative cell death”. The “patients who required additional lines of diverse chemotherapies” value (Ovarian Cancer (OV)) was 226 patients and the “patients who responded well to the first line of treatment” value (Ovarian Cancer (OV)) was 144 patients.
